Source: patent EP4810484A1, “NEUROACTIVE ANDROGEN RECEPTOR MODULATOR AND USE THEREOF” (Endochem Pharmaceuticals (Beijing) Co., Ltd., priority 2023, dated 2025)

What was measured:
[1] = Log P (Table 1, no method described)
[2] = Mouse blood-brain barrier permeation assay (LC-MS/MS of serum and brain); assay type: in vivo, C57BL/6J mice; conditions: for concentrations of the compound detected in serum and brain (in words): 20 mg/kg intraperitoneal
Description: Mouse blood-brain barrier permeation assay
Blood was collected by decapitation from the mice (each time point/3 mice) at the following time points: 30 min, 1 h, 2 h, 3 h, 4 h, 8 h, and brain tissue and blood were harvested at 12 h, 24 h, 36 h, 48 h and 72 h. • (3) When collecting serum, heparin sodium blood collection tubes were used.
The supernatant was filtered through a 0.22 µm filter and analyzed by LC-MS/MS.

[3] = target: T1, recombinant human androgen receptor (AR) protein (Homo sapiens, UniProt P10275); experiment: Small molecule-protein affinity (protein-ligand coupling) assay, Biacore T200 SPR; assay type: binding; conditions: summary of Table 1
T1 construct: RPB252Hu03, Ile673-His918 with N-terminal His Tag; His tag (N); purchased CLOUD-CLONE CORP; WUHAN RPB252Hu03
T1 sequence (P10275 673-918): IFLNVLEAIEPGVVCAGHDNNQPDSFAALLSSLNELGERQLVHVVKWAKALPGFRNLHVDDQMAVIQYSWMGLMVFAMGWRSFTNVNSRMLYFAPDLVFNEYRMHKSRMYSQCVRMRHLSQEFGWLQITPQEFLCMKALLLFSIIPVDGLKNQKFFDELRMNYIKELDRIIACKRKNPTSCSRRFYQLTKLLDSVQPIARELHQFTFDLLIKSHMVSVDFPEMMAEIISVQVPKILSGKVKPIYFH

[4] = target: T2, androgen receptors (Homo sapiens, UniProt P10275); experiment: Androgen Receptor Reporter Gene Assay in plasmid-transfected HEK293T cells; assay type: cell-based; conditions: HEK-293T
T2 construct: expressed in transfected cells; host or cells: HEK293T (ATCC, CRL-3216)
T2 sequence (P10275 1-920): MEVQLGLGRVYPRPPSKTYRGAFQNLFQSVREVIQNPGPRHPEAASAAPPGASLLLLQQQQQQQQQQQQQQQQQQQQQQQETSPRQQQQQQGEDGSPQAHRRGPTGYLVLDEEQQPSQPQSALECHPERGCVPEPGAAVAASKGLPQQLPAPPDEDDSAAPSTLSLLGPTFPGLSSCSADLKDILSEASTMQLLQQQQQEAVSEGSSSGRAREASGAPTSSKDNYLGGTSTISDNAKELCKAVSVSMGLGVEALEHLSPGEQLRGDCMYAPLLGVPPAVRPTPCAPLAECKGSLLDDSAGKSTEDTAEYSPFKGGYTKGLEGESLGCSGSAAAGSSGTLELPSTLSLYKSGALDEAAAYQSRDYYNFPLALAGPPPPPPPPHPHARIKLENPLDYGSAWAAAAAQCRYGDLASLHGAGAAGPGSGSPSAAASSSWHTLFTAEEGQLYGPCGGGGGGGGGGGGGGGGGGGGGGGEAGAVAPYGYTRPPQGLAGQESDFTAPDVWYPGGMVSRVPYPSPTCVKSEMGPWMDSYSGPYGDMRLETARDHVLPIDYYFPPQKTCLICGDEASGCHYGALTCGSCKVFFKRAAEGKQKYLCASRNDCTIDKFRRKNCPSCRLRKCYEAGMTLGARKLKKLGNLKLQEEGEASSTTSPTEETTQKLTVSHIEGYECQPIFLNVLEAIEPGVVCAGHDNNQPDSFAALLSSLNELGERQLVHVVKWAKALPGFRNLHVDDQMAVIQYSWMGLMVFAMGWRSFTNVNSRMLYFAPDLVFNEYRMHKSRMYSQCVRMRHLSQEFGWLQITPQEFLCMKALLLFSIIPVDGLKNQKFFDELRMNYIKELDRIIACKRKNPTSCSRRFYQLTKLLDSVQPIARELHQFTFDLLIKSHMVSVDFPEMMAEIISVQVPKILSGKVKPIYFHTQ

Row | Compound | logP [1] | concentrations of the compound detected in serum and brain (in words) [2] | also measured
1 | C[C@](O)(Cn1cnc(C(F)(F)F)cc1=O)C(=O)Nc1cnc(C#N)c(C(F)(F)F)c1 [Example 1] | 2.62 |  | 
2 | C[C@](O)(Cn1cnc(C(F)(F)F)cc1=O)C(=O)Nc1ccc(C#N)c(C(F)(F)F)c1 [Example 2] | 3.53 |  | 
3 | C[C@](O)(COc1ccc(C#N)cc1)C(=O)Nc1cnc(C#N)c(C(F)(F)F)c1 [Example 3, (S)-N-(6-cyano-5-(trifluoromethyl)pyridin-3-yl)-3-(4-cyanophenoxy)-2-hydroxy-2-methylpropionamide] | 2.53 | certain concentrations of the compound were detected in serum and brain up to 72 h after administration | 
4 | C[C@](O)(COc1ccc(C#N)nc1)C(=O)Nc1ccc(C#N)c(C(F)(F)F)c1 [Example 4, (S)-N-(4-cyano-3-(trifluoromethyl)phenyl)-3-((6-cyanopyridin-3-yl)oxy)-2-hydroxy-2-methylpropionamide] | 2.53 |  | 
5 | C[C@](O)(COc1ccc(C#N)nc1)C(=O)Nc1cnc(C#N)c(C(F)(F)F)c1 [Example 5, (S)-N-(6-cyano-5-(trifluoromethyl)pyridin-3-yl)-3-((6-cyanopyridin-3-yl)oxy)-2-hydroxy-2-methylpropionamide] | 1.61 |  | 
6 | C[C@](O)(COc1ccc(C#N)c(F)c1)C(=O)Nc1cnc(C#N)c(C(F)(F)F)c1 [Example 8, (S)-3-(4-cyano-3-fluorophenoxy)-N-(6-cyano-5-(trifluoromethyl)pyridin-3-yl)-2-hydroxy-2-methylpropionamide] |  | certain concentrations of the compound were detected in serum and brain up to 72 h after administration | 
7 | C[C@@](COc1ccc(C#N)nc1)(OC(=O)c1cccnc1)C(=O)Nc1ccc(C#N)c(C(F)(F)F)c1 [Example 11, (S)-1-((4-cyano-3-(trifluoromethyl)phenyl)amino)-3-((6-cyanopyridin-3-yl)oxy)-2-methyl-1-oxopropan-2-yl nicotinate] | 3.32 |  | 
8 | C[C@@](COc1ccc(C#N)cc1)(OC(=O)c1cccnc1)C(=O)Nc1cnc(C#N)c(C(F)(F)F)c1 [Example 13, (S)-1-((6-cyano-5-(trifluoromethyl)pyridin-3-yl)amino)-3-(4-cyanophenoxy)-2-methyl-1-oxopropan-2-yl nicotinate] | 3.32 | lower concentrations of the compound and higher concentrations of metabolites were detected in serum and brain | 
9 | CN(C)CCC(=O)O[C@@](C)(COc1ccc(C#N)cc1)C(=O)Nc1cnc(C#N)c(C(F)(F)F)c1 [Example 14, (S)-1-((6-cyano-5-(trifluoromethyl)pyridin-3-yl)amino)-3-(4-cyanophenoxy)-2-methyl-1-oxopropyl-2-yl 3-(dimethylamino)propanate] | 2.86 |  | 
10 | C[C@@](COc1ccc(C#N)cc1)(OC(=O)CCCC[C@@H]1CCSS1)C(=O)Nc1cnc(C#N)c(C(F)(F)F)c1 [Example 15, (S)-1-((6-cyano-5-(trifluoromethyl)pyridin-3-yl)amino)-3-(4-cyanophenoxy)-2-methyl-1-oxopropyl-2-yl 5-((R)-1,2-dithiolan-3-yl) pentanoate] |  | no effective concentration of the compound was detected in serum and brain | 
11 | CCCS(=O)(=O)O[C@@](C)(COc1ccc(C#N)cc1)C(=O)Nc1cnc(C#N)c(C(F)(F)F)c1 [Example 17, (S)-1-((6-cyano-5-(trifluoromethyl)pyridin-3-yl)amino)-3-(4-cyanophenoxy)-2-methyl-1-oxopropan-2-yl propane-1-sulfonate] | 3.07 |  | 
12 | CN1CCC(C(=O)O[C@@](C)(COc2ccc(C#N)cc2)C(=O)Nc2cnc(C#N)c(C(F)(F)F)c2)CC1 [Example 19, (S)-1-((6-cyano-5-(trifluoromethyl)pyridin-3-yl)amino)-3-(4-cyanophenoxy)-2-methyl-1-oxopropyl-2-yl-1-methylpiperidine-4-carboxylate] | 3.2 |  | 
13 | CC(C)C(=O)O[C@@](C)(COc1ccc(C#N)cc1)C(=O)Nc1cnc(C#N)c(C(F)(F)F)c1 [Example 21, (S)-1-((6-cyano-5-(trifluoromethyl)pyridin-3-yl)amino)-3-(4-cyanophenoxy)-2-methyl-1-oxopropan-2-yl isobutyrate] |  | lower concentrations of the compound and higher concentrations of metabolites were detected in serum and brain | 
14 | CC(=O)O[C@@](C)(COc1ccc(C#N)cc1)C(=O)Nc1cnc(C#N)c(C(F)(F)F)c1 [Example 24, (S)-1-((6-cyano-5-(trifluoromethyl)pyridin-3-yl)amino)-3-(4-cyanophenoxy)-2-methyl-1-oxopropan-2-yl acetate] | 2.76 |  | bioavailability in the brain ([2]; compared with the compound of Example 3): significantly improved
15 | C[C@@](COc1ccc(C#N)cc1)(OC(=O)c1ccccc1)C(=O)Nc1cnc(C#N)c(C(F)(F)F)c1 [Example 26, (S)-1-((6-cyano-5-(trifluoromethyl)pyridin-3-yl)amino)-3-(4-cyanophenoxy)-2-methyl-1-oxopropan-2-yl benzoate] | 4.65 | lower concentrations of the compound and higher concentrations of metabolites were detected in serum and brain | affinity to the androgen receptor proteins (in words) [3]: strong affinity
16 | CCC(=O)O[C@@](C)(COc1ccc(C#N)cc1)C(=O)Nc1cnc(C#N)c(C(F)(F)F)c1 [Example 28, (S)-1-((6-cyano-5-(trifluoromethyl)pyridin-3-yl)amino)-3-(4-cyanophenoxy)-2-methyl-1-oxopropan-2-yl-propionate] |  | lower concentrations of the compound and higher concentrations of metabolites were detected in serum and brain | 
17 | CN1C=CCC(C(=O)O[C@@](C)(COc2ccc(C#N)cc2)C(=O)Nc2ccc(C#N)c(C(F)(F)F)c2)=C1 [Example 35, (S)-1-((4-cyano-3-(trifluoromethyl)phenyl)amino)-3-(4-cyanophenoxy)-2-methyl-1-oxopropan-2-yl 1-methyl-1,4-dihydropyridine-3-carboxylate] | 4.45 |  | 
18 | C[C@](O)(COc1ccc(C#N)cc1)C(=O)Nc1ccc(C#N)c(C(F)(F)F)c1 [Ostarine, reference compound] | 3.49 |  | affinity to the androgen receptor proteins (in words) [3]: no binding affinity; Emax [4]: 78.4%
